These results are taken from PubChem BioAssay (NCI).

Some test systems named below: SN12C renal; KM12 colon; KM20L2 colon; SNB-19 CNS; EKVX NSCLC; IGROV1 ovarian; COLO 205 colon; SR leukemia; M14 melanoma; PC-3 prostate.
Common to all, as to assay: NCI-60 cell line screen, 48 h

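Step 1: Grow cells in 96-well plates. Step 2: Expose to compound for 48 hours at 5 concentrations. Step 3: Interpolate endpoints linearly; if unreached, use highest concentration. TGI: concentration producing complete growth inhibition.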 Where a SMILES comes first, the peptide text is derived from it. [ ]: non-standard residue; d: D form.

With `O=S(=O)(O)c1cc(S(=O)(=O)O)c2cc(N=Nc3ccc(N=Nc4ccc(/C=C/c5ccc(N=[N+]([O-])c6ccc(/C=C/c7ccc(N=Nc8ccc(N=Nc9ccc%10cc(S(=O)(=O)O)cc(S(=O)(=O)O)c%10c9)cc8)cc7S(=O)(=O)O)c(S(=O)(=O)O)c6)cc5S(=O)(=O)O)c(S(=O)(=O)O)c4)cc3)ccc2c1`, the TGI in the test with SN12C renal, with KM12 colon, with KM20L2 colon, in the test on SNB-19 CNS, with EKVX NSCLC and in the test with IGROV1 ovarian was greater than 100 µM in each case. In the test on COLO 205 colon, this compound had a TGI greater than 100 µM.
With `N#CC1=C(O)NC(O)=C(C#N)C1c1c(Cl)cccc1Cl`, the TGI in the test on SN12C renal was greater than 100 µM; in the test on KM12 colon, 71.5 µM; with KM20L2 colon, greater than 100 µM; in the test with SNB-19 CNS, greater than 100 µM; in the test on EKVX NSCLC it was greater than 100 µM; in the test with IGROV1 ovarian, greater than 100 µM. The TGI in the test on SR leukemia, with M14 melanoma and in the test with COLO 205 colon was greater than 100 µM each time.
Consider `CC(C)C[C@H](NC(=O)[C@H](CC(C)C)NC(=O)[C@@H](Cc1c[nH]c2ccccc12)NC(=O)[C@H](Cc1ccccc1)NC(=O)[C@@H](Cc1c[nH]c2ccccc12)NC(=O)[C@H](CCC(N)=O)NC(=O)[C@@H](CCC(N)=O)NC(=O)[C@@H]1CCCN1C(=O)[C@@H](CCCCN)NC(=O)[C@H]1CCCN1C(=O)[C@H](N)CCCN=C(N)N)C(N)=O` (H-[dR][dP][dK]P[dQ]Q[dW]F[dW]LL-NH2), for which the TGI in the test on SN12C renal, in the test on KM12 colon, in the test with KM20L2 colon, in the test with SNB-19 CNS, with EKVX NSCLC and in the test with IGROV1 ovarian was greater than 100 µM each time. For the same compound, in the test on COLO 205 colon, the TGI was greater than 100 µM.
Take `O=C1C(Cl)N(c2ccc([N+](=O)[O-])cc2)C1c1c[nH]c2ccccc12` (stereo not given): the TGI in the test with SN12C renal, with KM12 colon, in the test with KM20L2 colon, in the test with SNB-19 CNS, in the test with EKVX NSCLC and in the test with IGROV1 ovarian was greater than 100 µM throughout. The TGI with SR leukemia, in the test with M14 melanoma and in the test on COLO 205 colon was greater than 100 µM throughout.
Take `Cc1cc(C)[n+]2c(c1)C=CC2`: the TGI in the test on SN12C renal, in the test with KM12 colon, in the test with KM20L2 colon, in the test with SNB-19 CNS, in the test with EKVX NSCLC and in the test with M14 melanoma was greater than 100 µM each time. This compound returned a TGI in the test on COLO 205 colon of 68.2 µM.
For `N=C1C=CC(=C(c2ccc(N)cc2)c2ccc(N)cc2)C=C1`, the TGI amounted to 7.37 µM in the test with SN12C renal; 13.7 µM with KM12 colon; 12.4 µM with PC-3 prostate; 21.5 µM in the test on KM20L2 colon; 18.6 µM in the test with SNB-19 CNS; 51.4 µM in the test on EKVX NSCLC. For the same compound, the TGI was 31.5 µM in the test with IGROV1 ovarian, greater than 64.9 µM in the test with SR leukemia, 15.8 µM in the test on M14 melanoma and 5.83 µM with COLO 205 colon.
For the compound `COCC(C#N)NC1CC(OC2CC(O)(C(=O)CO)Cc3c(O)c4c(c(O)c32)C(=O)c2c(OC)cccc2C4=O)OC(C)C1O` (stereo not given), the TGI was 2.02 µM with SN12C renal; 0.77 µM in the test on KM12 colon; 1.2 µM in the test with PC-3 prostate; 2.89 µM with KM20L2 colon; 2.61 µM with SNB-19 CNS; 4.62 µM in the test with EKVX NSCLC. The TGI in the test on IGROV1 ovarian was 0.582 µM; in the test with SR leukemia it was 0.15 µM; with M14 melanoma, 0.774 µM; with COLO 205 colon, 0.471 µM.
As to `NS(=O)(=O)c1ccc(-c2ccc([As](=O)(O)O)cc2)cc1`, the TGI with SN12C renal, with KM12 colon, in the test with PC-3 prostate, with SNB-19 CNS, in the test on EKVX NSCLC and with IGROV1 ovarian was greater than 100 µM each time. Moreover, the TGI in the test on SR leukemia, in the test with M14 melanoma and with COLO 205 colon was greater than 100 µM each time.
Regarding `O=C1Sc2ccccc2C(=O)N2CCSC12` (stereo not given), the TGI with SN12C renal, with KM12 colon, in the test on KM20L2 colon, in the test with SNB-19 CNS, in the test with SR leukemia and with M14 melanoma was greater than 100 µM in each case. The TGI in the test on COLO 205 colon is greater than 100 µM.
For the compound `Cc1cc(N(CCC#N)CCC#N)ccc1/C(N=Nc1ccc(C(=O)O)cc1)=N\NC(=O)c1ccccc1`, the TGI in the test with SN12C renal, with KM12 colon, in the test on PC-3 prostate, with SNB-19 CNS, in the test on EKVX NSCLC and in the test with IGROV1 ovarian was greater than 100 µM in each case. Besides, the TGI in the test on SR leukemia, in the test with M14 melanoma and in the test with COLO 205 colon was greater than 100 µM in each case.
As for `c1ccc2c(c1)nnn2C1CCCCO1` (stereo not given), the TGI with SN12C renal, with KM12 colon, in the test on PC-3 prostate, in the test on SNB-19 CNS, with EKVX NSCLC and with IGROV1 ovarian was greater than 100 µM throughout. For the same compound, the TGI in the test with SR leukemia, in the test on M14 melanoma and in the test on COLO 205 colon was greater than 100 µM each time.
As to `C[Si](C)(C)OC1(C#N)c2ccccc2CCCC12CCCC2` (stereo not given), the TGI with SN12C renal, with KM12 colon, in the test on PC-3 prostate, in the test on SNB-19 CNS, in the test with EKVX NSCLC and in the test with IGROV1 ovarian was greater than 100 µM in each case. The TGI in the test on SR leukemia, in the test with M14 melanoma and with COLO 205 colon was greater than 100 µM in each case.
Consider `[N-]=[N+]=Nc1cc(=O)[nH]c2ccccc12`, for which the TGI in the test on SN12C renal was greater than 100 µM; in the test on KM12 colon, greater than 100 µM; with PC-3 prostate, greater than 100 µM; in the test with SNB-19 CNS it was greater than 100 µM; in the test on EKVX NSCLC it was 42.5 µM; in the test on IGROV1 ovarian, greater than 100 µM. Further, the TGI in the test with SR leukemia, with M14 melanoma and in the test with COLO 205 colon was greater than 100 µM in each case.
Regarding `CC1(C)C2CC3C(C)(C2)C31c1cc(Cl)ccc1N` (stereo not given), the TGI with SN12C renal came to 27.5 µM; with KM12 colon, 28.5 µM; in the test on PC-3 prostate, 27 µM; in the test with SNB-19 CNS, 33.5 µM; with EKVX NSCLC, 33 µM; in the test with IGROV1 ovarian it was 27.6 µM. Besides, the TGI in the test with SR leukemia was 22 µM; in the test on M14 melanoma it was 24.8 µM; in the test with COLO 205 colon, 33.2 µM.
